Source: patent US20250188404A1, “CULTURE CAPSULE AND METHOD FOR RES[…] IN VIABLE BUT NON-CULTURABLE (VBNC) STATE” (Innovation Center of Yangtze River Delta, ZJU, priority 2023, published 2025)

System: Salmonella ATCC14028 in a special dormant state
Assay: Resuscitation ("awakening") of VBNC Salmonella by nutrient added alone, pour-plate colony growth
Format: cell-based
Conditions: nutrient not encapsulated, more than 3 g egg yolk lecithin or more than 0.22 g cholesterol per 20 mL bacterial solution, static incubation 1 d to 7 d
Protocol: In the examples of the present disclosure, induced preparation of Salmonella ATCC14028 in a special dormant state: single colonies of Salmonella ATCC14028 are inoculated in a liquid medium and cultivated at 37° C. and 180 rpm to a late logarithmic stage; a resulting bacterial solution is centrifuged at 6,000 rpm for 10 min, and a resulting supernatant is discarded; a resulting precipitate is washed twice with phosphate buffered saline (PBS) and then re-dissolved with PBS for later use, and a resulting bacterial solution is serially diluted to a concentration of 1*10^8 CFU/mL; 18 mL of PBS is added to a 50 mL centrifuge tube, the centrifuge tube is heated in a 60±2° C. water bath, and after the temperature in the centrifuge tube reaches 60±2° C., 2 mL of a 1*10^8 CFU/mL bacterial solution is added to the centrifuge tube; a diluted bacterial solution is magnetically stirred and heated for 20 min, and then immediately taken out and placed in ice for later use; a cooled bacterial solution is centrifuged at 7,000 rpm for 10 min, a resulting supernatant is discarded, and PBS is added to 20 mL for re-dissolution; and the treated bacterial solution is subjected to staining with a Live/Dead BacLight kit, and then the number of viable bacteria in the treated bacterial solution is detected by flow cytometry. […]

Compound: CC(C)CCC[C@@H](C)[C@H]1CC[C@H]2[C@@H]3CC=C4C[C@@H](O)CC[C@]4(C)[C@H]3CC[C@]12C [cholesterol]
- "awakening" of bacteria in a special dormant state (growth of colonies): can “awaken” bacteria in a special dormant state
